Data as given in US10086108B2, “Hydrogels and use thereof in anastomosis procedures” (The United States of America, as represented by the …, priority 2015, dated 2018).

How the values were obtained:
Type in all cases: physicochemical
[1] = UV photolysis of the indoline cage followed by absorbance at 248 nm; conditions: absorbance at 248 nm during irradiation
Description: FIGS. 6A and 6B test that assertion by following the fate of both the 4-methoxy-7-nitroindoline (MNI) group as well as the caged peptide during photolysis. In FIG. 6A, the absorbance of APC1 at 248 nm is followed as a function of time during irradiation. Absorbance at this wavelength is mainly due to the intact indoline cage. […] In FIG. 6B, photolysis of the caged peptide is followed by RP-HPLC. […] Mass spectroscopy was used to confirm the identity of both species.

[2] = Circular dichroism spectroscopy of peptide folding and assembly; conditions: for Folding state by CD under gelation conditions / Folding state by CD in water: 1% w/v; for Folding state by CD under gelation conditions: pH 7.4, 150 mM NaCl, 25 or 37° C.; for Folding state by CD in water: 5° C.; for Temperature needed to induce folding and assembly: pH 7.4 buffer with NaCl, ellipticity at 216 nm vs temperature
Experimental: The ability of APC1 and APC2 to fold and associate into β-sheet rich assemblies was monitored using circular dichroism (CD) spectroscopy. In water at 5° C., the CD spectra of 1% w/v solutions of APC1 and APC2 indicate that the peptides are unfolded under these conditions (FIG. 4A). […] The NaCl screens the lysine point charges and increasing the temperature drives the hydrophobic effect, both of which favor folding and assembly. The exact temperatures needed to induce folding and assembly of each peptide were determined by monitoring the mean ellipticity at 216 nm as a function of temperature as shown in FIG. 13. In all the CD experiments, self-supporting hydrogels of both peptides (pH 7.4, 150 mM NaCl) form directly in the cuvette after folding is triggered. The same procedure can be used to form the gels directly in a syringe. […] Also evident in the spectra are absorptions due to the indoline cage, which occur in the near UV-CD (240-380 nm). […] However, when the peptides fold and assemble, the indoline ring is placed into a chiral environment, such as that provided by the fibril's hydrophobic interior. […] Importantly, it also supports the assertion that if the glutamate's negative point-charge were to be unmasked when the peptides are in the folded and assembled fibrillar state, that this event should be disruptive.
Circular Dichroism (CD). CD spectra of peptide hydrogels were collected on an AVIV 410 spectropolarimeter (AVIV Biomedical Inc., NJ). For wavelength spectra of APC1 and APC2 in water, a 1 wt % solution of peptide was prepared by dissolving lyophilized peptide in water at 5° C. The peptide solution was transferred to a 0.1 mm path length cylindrical cell and placed in the spectrometer sample holder equilibrated at 5° C. For temperature-dependent folding of 1 wt % hydrogels, a 2 wt % peptide solution was first prepared by dissolving lyophilized peptide in water and chilling on ice. Then, an equal volume of chilled 100 mM BTP, 300 mM NaCl, pH 7.4 buffer was added, gently mixed, and quickly transferred to a 0.1 mm path length cylindrical cell and placed in the spectrometer sample holder equilibrated at 5° C. The CD spectra were collected from 200-260 nm or 200-400 nm as a function of temperature at 5 degree increments from 5-80° C. with 10 min equilibration at each temperature. For UV photolysis of 1% w/v hydrogels, the solution was prepared in a manner identical to the folding studies and placed in the spectrometer at 25° C. or 37° C. for 30 minutes. The hydrogel within the cylindrical cell was irradiated for the specified time interval, followed by recording the mean residue ellipticity at 216 nm. For APC1, irradiation and spectra were obtained at 10 second intervals for the first 60 seconds, then at 1 minute intervals for a total of 5 minutes. For APC2, irradiation and spectra were obtained at 1 minute intervals for a total of 15 minutes. At the final time point, a wavelength spectrum from 200-400 nm of each peptide was obtained. Peptide concentration was determined by UV spectroscopy using ε220nm=16448 M^−1cm^−1 for cAPC1 and cAPC2 and ε220nm=31144 M^−1cm^−1 for APC1 and APC2. The mean residue ellipticity [θ] was calculated from [θ]=(θobs/10 lc)/r, where θobs is the measured ellipticity in degrees, l is the path length in centimeters, c is the concentration in molar, and r is the number of residues in the sequence. Each CD spectra shown is representative of three individual experiments, where each data point represents the average of 30 measurements, with a variance in ellipticity of 0.2 millidegrees at each wavelength.

[3] = Oscillatory rheology of peptide hydrogels (formation, shear-thin/recovery, UV photodisruption); conditions: for Storage modulus (G′) of formed gel, regime I time sweep: 1% w/v peptide, pH 7.4, 6 rad/s, 0.2% strain, APC1 after 30 minutes; for Onset of gelation after triggering: regime I
Description: Oscillatory rheology was employed to study the rheological behavior of each gel under experimental conditions that mimic its use during the anastomosis procedure. Here, the storage modulus (G′), a measure of the gels' mechanical rigidity, is monitored in the rheometer under environmental conditions that mimic: (1) the initial (sol-gel) formation of the hydrogel in the syringe; (2) shear thinning of the material as it passes through the syringe needle during injection with subsequent hydrogel recovery in the vessel lumen; and (3) the disruption of the gel network (gel-sol) by UV photolysis after suturing. Monitoring gel behavior in a rheometer, although not exactly capturing the gel's response during the actual anastomosis procedure, allows quantitative and reproducible measurement of gel mechanical properties under highly controlled conditions. […] In regime I, the rate of hydrogel formation (sol-gel) is assessed in a time-sweep experiment that monitors the evolution of G′ after peptide folding and assembly is triggered for a 1% w/v solution of peptide. […] After completion of the initial time sweep, 1000% strain is applied to the material for 30 seconds in regime II to mimic syringe delivery of the gel. This application of strain results in an immediate decrease in G′ indicative of shear thinning that results in a viscous gel capable of flow. After the 30 seconds, the applied strain is decreased to 0.2% and the material is allowed to recover. […] Lastly, using an optically clear parallel plate in the rheometer, the recovered hydrogel is subjected to irradiation by UV light (365 nm) for the first 10 minutes of regime III, where the effect of photolysis on the storage modulus is monitored over time. […] Importantly, irradiation by UV rapidly disrupts the gel network affording a viscous material, which should be capable of dissolution when exposed to the shear of blood flow. Independent frequency- and strain-sweep measurements were also performed as shown in FIGS. 14A-14B and FIGS. 15A-15B.
Application of 1000% strain in the first 30 sec. of regime II quickly thins the APC2 gel. However, the resulting viscous material is unable to self-heal effectively and recovers only about 5% of its original mechanical rigidity. Finally, irradiation in regime III disrupts the weakly recovered gel. Although APC2 is initially able to form a very rigid gel, its inability to recover after being shear thinned precludes it use in the anastomosis procedure. […] Here, incorporation of the cage near the strand termini of the hairpin hampers the ability of the network to recover. Based on this rheological assessment, the APC1 gel was chosen for further study.
Oscillatory Rheology. Rheology experiments were performed on an AR-G2 Rheometer (TA Instruments, DE) equipped with a 25 mm stainless steel parallel plate geometry using a 0.5 mm gap height. A 2 wt % peptide solution was prepared by dissolving lyophilized peptide in water and chilling on ice. An equal volume of chilled 100 mM BTP, 300 mM NaCl, pH 7.4 buffer was added and gently mixed, then immediately transferred to the rheometer plate equilibrated at 5° C. In separate experiments, APC1 gels were prepared in syringe, or as a preformed slab, and incubated for 1 hour at 37° C. Gels were then shear-thinned delivered, or transferred as an intact gel slab, to the rheometer plate, respectively. A temperature ramp from 5° C. to the desired temperature (25° C. or 37° C.) over 100 seconds was performed, followed by a 60 minute dynamic time sweep using an angular frequency of 6 rads and application of 0.2% strain to monitor the storage (G′) and loss (G″) modulus of the hydrogel. The resulting hydrogel was further evaluated by performing a frequency sweep from 0.1 to 100 rads and a strain sweep at 6 rads from 0.1% to 1000% strain. Oil was placed around the sample and on the plate to prevent evaporation. […]

| Substance | Irradiation time to almost complete photolysis of the indoline cage [1] | Folding state by CD under gelation conditions [2] | Folding state by CD in water [2] | Temperature needed to induce folding and assembly [2] | Storage modulus (G′) of formed gel, regime I time sweep [3] | Onset of gelation after triggering ([3]; 1% w/v) | Storage modulus (G′) after UV irradiation, regime III ([3]; 365 nm, 10 minutes, recovered 1% w/v gel) | Storage modulus (G′) recovered after shear thinning ([3]; 1000% strain for 30 seconds, then 0.2% strain, 1% w/v) |
| --- | --- | --- | --- | --- | --- | --- | --- | --- |
| Ac-VKVKVKGKV^DPPTKZEVKVKV-NH2 [APC1] | 90 s | β-sheet secondary structure | unfolded | 25 °C | ~2,500 Pa | within the first few minutes | ~180 Pa | 1900 Pa |
| VKVKGKVKV^DPPTKVEZKVKV [APC2] | – | β-sheet secondary structure | unfolded | 37 °C | 20,000 Pa | significant lag phase | – | – |
